Data: patent US20200261427A1 (Al Therapeutics, Inc., priority 2019, published 2020)
Converted amounts (≈) assume the structure as drawn.

Tests used:
[1] = Antioxidant screen in Transcutol; type: physicochemical
Method: Since there was significant degradation in diethylene glycol monoethyl ether (TC) after 1 week, and TC can generate peroxides, it was selected as the solvent for the antioxidant screen. […] (1) No antioxidant; […] […] The 4-week data at 40° C. was used to calculate the main effects of the two antioxidants and their interaction (Box et al., 1978) for the assay values. The positive effect of BHA (+23.8) was twice the positive effect of Vit. E (+11.6).

[2] = Saturation solubility in solvents and 10% co-solvent aqueous solutions
Method: (§1) All solutions were buffered with 5 mM citrate buffer at pH 4.5.

[3] = Stability of rapamycin in solvents PG, TC, DMI; type: physicochemical; details: 0.2% w/w in DMI, 1 week at 5, 25, 40° C. (FIG. 3)
physchem = details: thermodynamic from solid
Method: as §1

[4] = pH stability screen of rapamycin in 1:1 ethanol:water; type: physicochemical; details: 0.1 mg/mL in 1:1 ethanol:water, pH 3, 5, unbuffered; 1 week at 5, 25, 40° C. (FIG. 2)
Method: 20 mM citrate buffers were prepared at pH 3, 5 and 7. With the exception of the pH 7 buffer, these buffers were miscible in 50% ethanol. Rather than reduce the buffer concentration to obtain a higher pH, the third solution was prepared with unbuffered water. An Orion 710A+ pH meter with a Thermo Scientific electrode was used for pH measurement.

[5] = Solubility screening by gravimetric analysis; type: physicochemical
Method: Solubility screening was performed by gravimetric analysis. In a glass vial, known amounts of API were added to a known amount of solvent and the sample was rotated with a vial rotator (VWR) at room temperature. If the API completely dissolved, an additional known amount was added. The samples were rotated for at least 48 hours after the last API addition before determining the gravimetric result (i.e., greater than a % w/w or less than a % w/w).

[6] = Microscopic examination of rapamycin crystal growth; details: rectangular crystals in gels showing crystal growth

Compound: CO[C@H]1C[C@@H]2CC[C@@H](C)[C@@](O)(O2)C(=O)C(=O)N2CCCC[C@H]2C(=O)O[C@H]([C@H](C)C[C@@H]2CC[C@@H](O)[C@H](OC)C2)CC(=O)[C@H](C)/C=C(\C)[C@@H](O)[C@@H](OC)C(=O)[C@H](C)C[C@H](C)/C=C/C=C/C=C/1C [Rapamycin, rapamycin]
- Rapamycin Assay (% of Initial) ([1]; 0.002% Vit. E, 25° C., week 1): 98.3 % of Initial
- Rapamycin Assay (% of Initial) ([1]; 0.002% Vit. E, 25° C., week 4): 98.2 % of Initial
- Rapamycin Assay (% of Initial) ([1]; 0.002% Vit. E, 40° C., week 1): 96.8 % of Initial
- Rapamycin Assay (% of Initial) ([1]; 0.002% Vit. E, 40° C., week 2): 97.0 % of Initial
- Rapamycin Assay (% of Initial) ([1]; 0.002% Vit. E, 40° C., week 4): 82.2 % of Initial
- Rapamycin Assay (% of Initial) ([1]; 0.01% BHA, 25° C., week 1): 99.2 % of Initial
- Rapamycin Assay (% of Initial) ([1]; 0.01% BHA, 25° C., week 4): 98.3 % of Initial
- Rapamycin Assay (% of Initial) ([1]; 0.01% BHA, 40° C., week 1): 97.1 % of Initial
- Rapamycin Assay (% of Initial) ([1]; 0.01% BHA, 40° C., week 2): 98.1 % of Initial
- Rapamycin Assay (% of Initial) ([1]; 0.01% BHA, 40° C., week 4): 94.4 % of Initial
- Rapamycin Assay (% of Initial) ([1]; 0.2% w/w in Transcutol, No Antioxidant, 25° C., week 1): 95.7 % of Initial
- Rapamycin Assay (% of Initial) ([1]; BHA + Vit. E, 25° C., week 1): 98.8 % of Initial
- Rapamycin Assay (% of Initial) ([1]; BHA + Vit. E, 25° C., week 4): 98.7 % of Initial
- Rapamycin Assay (% of Initial) ([1]; BHA + Vit. E, 40° C., week 1): 96.9 % of Initial
- Rapamycin Assay (% of Initial) ([1]; BHA + Vit. E, 40° C., week 2): 98.7 % of Initial
- Rapamycin Assay (% of Initial) ([1]; BHA + Vit. E, 40° C., week 4): 96.2 % of Initial
- Rapamycin Assay (% of Initial) ([1]; No Antioxidant, 25° C., week 4): 84.6 % of Initial
- Rapamycin Assay (% of Initial) ([1]; No Antioxidant, 40° C., week 1): 87.3 % of Initial
- Rapamycin Assay (% of Initial) ([1]; No Antioxidant, 40° C., week 2): 79.0 % of Initial
- Rapamycin Assay (% of Initial) ([1]; No Antioxidant, 40° C., week 4): 60.8 % of Initial
- Rapamycin Solubility ([2]; 10% Diethylene Glycol Monoethyl Ether (TC), pH 4.5, 5 mM citrate): 4.6 µg/mL
- saturation solubility ([2]; in TC): 15.5 % w/w
- solvent compatibility (solution stability) [3]: most compatible with propylene glycol (PG) and least compatible with dimethyl isosorbide (DMI)
- solubility (physchem; 10% TC and 10% DMI aqueous solutions versus water, pH 4.5, aqueous with cosolvent or surfactant or cyclodextrin): 1.5 to 2 µg/mL (≈ 1.64 to 2.19 µM)
- solubility (physchem; 10% propylene glycol (PG) aqueous solution, citrate buffered, pH 4.5, aqueous with cosolvent or surfactant or cyclodextrin): 2.9 µg/mL (≈ 3.17 µM)
- solubility (physchem; pH 4.5, aqueous with cosolvent or surfactant or cyclodextrin): 5.2 µg/mL (≈ 5.69 µM)
- solubility (physchem; water, citrate buffered, pH 4.5, aqueous buffer): 2.9 µg/mL (≈ 3.17 µM)
- rapamycin pH stability [4]: more stable at an acidic pH
- Rapamycin solubility % w/w ([5]; Diethylene glycol monoethyl ether (TC)): >13 % w/w
- Rapamycin solubility % w/w ([5]; Diisopropyl adipate): <1.0 % w/w
- Rapamycin solubility % w/w ([5]; Dimethyl isosorbide (DMI)): >7 % w/w
- Rapamycin solubility % w/w ([5]; Hexylene glycol): <1.0 % w/w
- Rapamycin solubility % w/w ([5]; Isopropyl myristate): <0.1 % w/w
- Rapamycin solubility % w/w ([5]; Light mineral oil): <0.3 % w/w
- Rapamycin solubility % w/w ([5]; Medium chain triglycerides): <0.1 % w/w
- Rapamycin solubility % w/w ([5]; Octyldodecanol): <1.0 % w/w
- Rapamycin solubility % w/w ([5]; PEG 400): <1.5 % w/w
- Rapamycin solubility % w/w ([5]; Propylene glycol (PG), room temperature): <0.75 % w/w
- length of rapamycin crystals grown [6]: 25-100 microns
